According to US8563741B2, “CDK inhibitors containing a zinc binding moiety” (Curis, Inc., priority 2007, dated 2013):

Assays:
CDK9/cyclinT1 = molecular target: T1, CDK9/cyclinT1 (Homo sapiens, UniProt P50750); experiment: CDK activity assay with p33 ATP, CDK9/cyclinT1; type: biochemical; conditions: 1 μM ATP
T1 construct: C-terminal 6His-tagged, full-length recombinant, human cdk9 (MW=44 kDa); 6His (C); made in house; host or cells: Sf21 insect cells (baculovirus)
Method: CDK9/cyclinT1 (Accession Number for CDK9; GenBank AF517840, for Cyclin T1; GenBank NM_001240)
C-terminal 6His-tagged, full-length recombinant, human cdk9 (MW=44 kDa) were co-expressed with untagged, full-length human cyclin T1 (MW=80.79 kDa) with baculovirus system in Sf21 insect cells. Recombinant protein complex was purified with Ni^2+/NTA agarose. Purity of recombinant protein was measured to be 50% by SDS-PAGE and Coomassie blue staining Specific Activity of purified enzyme was measured to be186 U/mg, where one unit of cdk9/cyclin T1 activity is defined as 1 nmol phosphate incorporated into 100 μM PDKtide ([…]) (SEQ ID NO. 3), per minute at 30° C. with a final ATP concentration of 100 μM. Enzyme was stored at a concentration of 0.1 mg/ml in 50 mM Tris-HCl, pH 7.5, 300 mM NaCl, 0.1 mM EGTA, 0.03% Brij-35, 270 mM sucrose, 1 mM benzamidine, 0.1% 2-mercaptoethanol, 0.2 mM PMSF.
PDKtide (Substrate for CDK9):
Synthetic peptide substrate with sequence of [[…]] (SEQ ID NO. 3), MW=4771.4.

HDAC = HDAC fluorimetric assay kit (AK-500, Biomol), HeLa nuclear extract; type: biochemical
Method: HDAC inhibitors were screened using an HDAC fluorimetric assay kit (AK-500, Biomol, Plymouth Meeting, Pa.). […] Each assay was setup as follows: Defrosted all kit components and kept on ice until use. Diluted HeLa nuclear extract 1:29 in Assay Buffer (50 mM Tris/Cl, pH 8.0, 137 mM NaCl, 2.7 mM KCl, 1 mM MgCl2). Prepared dilutions of Trichostatin A (TSA, positive control) and tested compounds in assay buffer (5× of final concentration). Diluted Fluor de LysTM Substrate in assay buffer to 100 uM (50 fold=2× final). Diluted Fluor de LysTM developer concentrate 20-fold (e.g. 50 μl plus 950 μl Assay Buffer) in cold assay buffer. Second, diluted the 0.2 mM Trichostatin A 100-fold in the 1× Developer (e.g. 10 μl in 1 ml; final Trichostatin A concentration in the 1× Developer=2 μM; final concentration after addition to HDAC/Substrate reaction=1 μM). Added Assay buffer, diluted trichostatin A or test inhibitor to appropriate wells of the microtiter plate. Added diluted HeLa extract or other HDAC sample to all wells except for negative controls. Allowed diluted Fluor de LysTM Substrate and the samples in the microtiter plate to equilibrate to assay temperature (e.g. 25 or 37° C. Initiated HDAC reactions by adding diluted substrate (25 μl) to each well and mixing thoroughly. Allowed HDAC reactions to proceed for 1 hour and then stopped them by addition of Fluor de LysTM Developer (50 μl). Incubated plate at room temperature (25° C.) for 10-15 min. Read samples in a microtiter-plate reading fluorimeter capable of excitation at a wavelength in the range 350-380 nm and detection of emitted light in the range 440-460 nm.

CDK7/cyclinH1/MNAT1 = CDK7/cyclinH1/MNAT1 (Homo sapiens, UniProt P50613); experiment: CDK activity assay with p33 ATP, CDK7/cyclinH1/MNAT1
Method: Recombinant Human Full-Length protein, Histidine-tagged CDK7 (MW=43.2 kDa), Histidine-tagged cyclin H1 (MW=42.6 kDa), Histidine-tagged MNAT1 (MW=40.5 kDa), were expressed in insect cells.
For CDK activity assay, p33 ATP tracers were incubated with purified recombinant specific combination of purified CDK kinases, cyclins and substrates to monitor the enzyme activity. In these assays, individual reactions were carried out in specific conditions describe below with reaction buffer: 20 mM HEPES (pH 7.5), 10 mM MgCl2, 1 mM EGTA, 0.02% Brij 35, 0.02 mg/ml BSA, 0.1 mM Na3VO4, 2 mM DTT. […] Precipitated proteins were trapped onto glass fiber B filterplates and excess unlabeled p33 ATP was washed off. The plates were allowed to air-dry prior to the addition of 30 uL/well of Packard Microscint 20. The amount of incorporated isotope was measured using a Perkin Elmer TopCount plate reader. […] IC50 was calculated using Prism software with sigmoidal dose-response curve fitting.
100 nM CDK7/cyclinH1/MNAT1 and 20 μM Histon H1 were mixed in the reaction buffer with 1 μM ATP and 1% DMSO.

CDK4/cyclinD1 = molecular target: T2, CDK4/cyclinD1 (Homo sapiens, UniProt P11802); experiment: CDK activity assay with p33 ATP, CDK4/cyclinD1; type: biochemical; conditions: 1 μM ATP
T2 construct: Recombinant Human Full-length GST-tagged CDK-4 (MW=61.8 kDa) and cyclinD1 (MW=61.2 kDa); GST; made in house; host or cells: insect cells
Method: Recombinant Human Full-length GST-tagged CDK-4 (MW=61.8 kDa) and cyclinD1 (MW=61.2 kDa) were expressed in insect cells. […] Activity was determined at a final protein concentration at 8.33 μg/mL.
RBC-CTF (Substrate for CDK4):
Human RB protein (S773-K928, MW=44.46 kDa), N-terminal GST-tagged was purified and followed with a factor Xa cleavage, which was performed in 4 mM concentration of glutathione, Purified protein was stocked at a concentration of 0.67 mg/ml.
2 nM CDK4/cyclinD1 and 1 μM RB-CTF were mixed in the reaction buffer with final concentration of 1 μM ATP and 1% DMSO.

CDK2/cyclinE = molecular target: T3, CDK2/cyclinE (Homo sapiens, UniProt P24941); experiment: CDK activity assay with p33 ATP, CDK2/cyclinE; type: biochemical; conditions: 1 μM ATP
T3 construct: C-terminal 6His-tagged, recombinant full-length CDK2 (MW=34 kDa); 6His (C); made in house; host or cells: Sf21 cells (baculovirus)
Method: CDK2/cyclinE (Accession Number for CDK2; EMBL M68520, for cyclinE1; GenBank NM_001238):
C-terminal 6His-tagged, recombinant full-length CDK2 (MW=34 kDa) in complex with N-terminal GST-tagged, recombinant full-length cyclinE1 (MW=74 kDa) were expressed with baculovirus system in Sf21 cells. Recombinant proteins were purified using Ni2+/NTA agarose and the purity of recombinant protein complex was measured to be around 76% by SDS-PAGE and Coomassie blue staining. Specific Activity of recombinant CDK2/cyclinE was 1336 U/mg, where one unit of CDK2/cylinE1 activity is defined as 1 nmol phosphate incorporated into 0.1 mg/ml histone H1 per minute at 30° C. with a final ATP concentration of 100 μM. Enzyme was stored with concentration of 0.1 mg/ml in 50 mM Tris/HCl pH 7.5, 150 mM NaCl, 0.03% Brij-35, 0.1 mM EGTA, 0.2 mM PMSF, 1 mM benzamidine, 0.1% 2-mercaptoethanol, 270 mM sucrose.

CDK6/cyclinD3 = molecular target: T4, CDK6/cyclinD3 (Homo sapiens, UniProt Q00534); experiment: CDK activity assay with p33 ATP, CDK6/cyclinD3; type: biochemical; conditions: 1 μM ATP; read-out: CDK6/cyclinD IC50
T4 construct: N-terminal, 6His-tagged full-length human cdk6 (MW=38 kDa); 6His (N); made in house; host or cells: Sf21 cells
Method: CDK6/cyclinD3 (Accession Number for CDK6; GenBank X66365, for Cyclin D3; EMBL M90814):
N-terminal, 6His-tagged full-length human cdk6 (MW=38 kDa) complexed with N-terminal GST-tagged full-length human cyclin D3 (MW=59 kDa) were expressed in Sf21 cells. Recombinant protein complex was purified using glutathione-agarose and activated with CAK, and repurified with Ni2+/NTA-agarose column. Purity was measured to be at least 68%. Specific Activity was measured to be 39 U/mg, where one unit of cdk6/cyclinD3 activity is defined as 1 nmol phosphate incorporated into 0.1 mg/ml histone H1 per minute at 30° C. with a final ATP concentration of 100 μM. Enzyme was stored at concentration of 0.1 mg/ml in 50 mM Tris-HCl, pH 7.5, 270 mM sucrose, 150 mM NaCl, 1 mM benzamidine, 0.2 mM PMSF, 0.1% 2-mercaptoethanol, 0.1 mM EGTA, 0.03% Brij 35.

T1 sequence (P50750 whole entry): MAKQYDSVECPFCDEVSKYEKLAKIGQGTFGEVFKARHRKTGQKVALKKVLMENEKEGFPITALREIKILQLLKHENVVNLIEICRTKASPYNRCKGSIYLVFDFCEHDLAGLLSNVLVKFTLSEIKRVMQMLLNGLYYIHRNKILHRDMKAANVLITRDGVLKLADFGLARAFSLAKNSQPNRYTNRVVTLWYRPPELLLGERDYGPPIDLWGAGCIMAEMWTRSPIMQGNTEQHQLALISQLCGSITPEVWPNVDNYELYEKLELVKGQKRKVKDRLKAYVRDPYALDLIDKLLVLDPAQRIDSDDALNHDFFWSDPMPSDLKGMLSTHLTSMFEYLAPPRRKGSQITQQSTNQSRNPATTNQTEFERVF
T1 sequence (O60563 whole entry partner): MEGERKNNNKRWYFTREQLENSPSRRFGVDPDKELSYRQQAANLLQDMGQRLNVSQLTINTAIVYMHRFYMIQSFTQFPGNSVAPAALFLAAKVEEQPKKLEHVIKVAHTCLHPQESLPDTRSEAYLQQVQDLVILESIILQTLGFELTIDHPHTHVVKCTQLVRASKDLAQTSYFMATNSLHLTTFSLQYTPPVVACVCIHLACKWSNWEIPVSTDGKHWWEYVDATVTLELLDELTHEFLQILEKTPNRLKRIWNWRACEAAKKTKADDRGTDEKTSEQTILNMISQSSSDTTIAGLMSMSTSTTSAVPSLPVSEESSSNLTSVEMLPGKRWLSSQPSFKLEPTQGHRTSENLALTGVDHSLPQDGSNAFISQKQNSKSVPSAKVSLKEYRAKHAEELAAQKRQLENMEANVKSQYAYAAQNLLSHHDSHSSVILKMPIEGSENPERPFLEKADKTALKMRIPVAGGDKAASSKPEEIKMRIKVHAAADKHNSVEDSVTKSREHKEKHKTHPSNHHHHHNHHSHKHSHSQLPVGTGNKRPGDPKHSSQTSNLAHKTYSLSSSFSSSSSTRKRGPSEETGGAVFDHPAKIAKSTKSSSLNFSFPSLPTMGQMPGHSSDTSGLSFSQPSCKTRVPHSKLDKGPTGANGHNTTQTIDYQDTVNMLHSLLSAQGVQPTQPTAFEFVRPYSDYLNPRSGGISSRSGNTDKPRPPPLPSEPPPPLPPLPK
CDK7/cyclinH1/MNAT1, sequence (P50613 whole entry): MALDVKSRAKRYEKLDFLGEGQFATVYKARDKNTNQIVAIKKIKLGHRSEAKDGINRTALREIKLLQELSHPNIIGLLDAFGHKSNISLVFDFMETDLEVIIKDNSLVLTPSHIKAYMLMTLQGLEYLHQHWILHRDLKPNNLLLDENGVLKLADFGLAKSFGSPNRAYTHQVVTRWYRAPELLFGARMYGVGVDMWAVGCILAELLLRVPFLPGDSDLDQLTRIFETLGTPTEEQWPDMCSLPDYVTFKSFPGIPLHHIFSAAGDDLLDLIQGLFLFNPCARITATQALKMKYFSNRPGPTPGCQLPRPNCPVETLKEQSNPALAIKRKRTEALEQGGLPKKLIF
CDK7/cyclinH1/MNAT1, sequence (P51946 whole entry partner): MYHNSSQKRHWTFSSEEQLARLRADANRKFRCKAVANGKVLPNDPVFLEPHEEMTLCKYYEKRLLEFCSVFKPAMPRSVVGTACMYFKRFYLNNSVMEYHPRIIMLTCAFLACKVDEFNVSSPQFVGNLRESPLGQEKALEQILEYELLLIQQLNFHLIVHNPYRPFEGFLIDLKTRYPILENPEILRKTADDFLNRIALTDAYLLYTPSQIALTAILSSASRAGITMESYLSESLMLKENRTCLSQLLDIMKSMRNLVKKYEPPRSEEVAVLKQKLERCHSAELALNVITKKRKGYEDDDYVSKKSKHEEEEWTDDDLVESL
CDK7/cyclinH1/MNAT1, sequence (P51948 whole entry partner): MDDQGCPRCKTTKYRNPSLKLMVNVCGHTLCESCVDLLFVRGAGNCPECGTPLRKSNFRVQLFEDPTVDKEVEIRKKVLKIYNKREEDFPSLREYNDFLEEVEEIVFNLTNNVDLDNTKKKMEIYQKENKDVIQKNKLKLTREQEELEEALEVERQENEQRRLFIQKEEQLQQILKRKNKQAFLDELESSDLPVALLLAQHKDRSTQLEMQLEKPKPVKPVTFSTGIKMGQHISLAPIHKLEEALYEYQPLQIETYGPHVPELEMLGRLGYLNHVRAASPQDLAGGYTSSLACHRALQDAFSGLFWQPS
T2 sequence (P11802 whole entry): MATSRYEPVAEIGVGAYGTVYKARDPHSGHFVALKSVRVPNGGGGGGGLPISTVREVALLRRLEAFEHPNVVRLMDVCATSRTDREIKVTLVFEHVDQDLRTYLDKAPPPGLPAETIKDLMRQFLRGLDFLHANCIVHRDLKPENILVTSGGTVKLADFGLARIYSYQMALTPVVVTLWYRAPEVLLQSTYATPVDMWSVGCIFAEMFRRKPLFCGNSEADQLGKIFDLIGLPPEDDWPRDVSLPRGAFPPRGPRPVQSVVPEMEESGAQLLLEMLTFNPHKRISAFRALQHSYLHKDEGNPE
T2 sequence (P24385 whole entry partner): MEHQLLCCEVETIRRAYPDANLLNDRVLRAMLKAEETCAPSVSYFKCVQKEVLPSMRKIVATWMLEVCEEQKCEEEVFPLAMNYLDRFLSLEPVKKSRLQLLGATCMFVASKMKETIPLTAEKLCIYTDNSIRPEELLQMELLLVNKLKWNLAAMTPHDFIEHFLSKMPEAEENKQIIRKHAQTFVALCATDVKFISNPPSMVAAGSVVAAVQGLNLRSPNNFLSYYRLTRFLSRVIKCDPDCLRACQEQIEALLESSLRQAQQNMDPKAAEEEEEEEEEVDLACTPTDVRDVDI
T4 sequence (Q00534 whole entry): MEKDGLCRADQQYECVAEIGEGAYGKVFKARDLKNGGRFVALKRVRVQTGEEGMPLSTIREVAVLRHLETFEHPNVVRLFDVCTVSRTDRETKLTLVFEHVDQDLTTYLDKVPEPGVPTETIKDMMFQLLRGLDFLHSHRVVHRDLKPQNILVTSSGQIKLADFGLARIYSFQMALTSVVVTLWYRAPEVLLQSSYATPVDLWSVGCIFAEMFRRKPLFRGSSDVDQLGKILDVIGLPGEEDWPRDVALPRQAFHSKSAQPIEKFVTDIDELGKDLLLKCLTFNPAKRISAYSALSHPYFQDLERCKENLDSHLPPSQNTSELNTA
T4 sequence (P30281 whole entry partner): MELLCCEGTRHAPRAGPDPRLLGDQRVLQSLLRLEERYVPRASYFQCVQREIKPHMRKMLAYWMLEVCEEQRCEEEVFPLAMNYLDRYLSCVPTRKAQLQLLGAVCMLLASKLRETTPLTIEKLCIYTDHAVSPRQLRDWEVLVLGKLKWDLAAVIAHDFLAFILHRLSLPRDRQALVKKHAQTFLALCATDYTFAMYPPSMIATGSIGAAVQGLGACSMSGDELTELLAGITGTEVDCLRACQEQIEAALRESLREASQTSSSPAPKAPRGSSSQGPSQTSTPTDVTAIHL

Row | SMILES | IC50 (CDK9/cyclinT1) | IC50 (HDAC) | IC50 (CDK7/cyclinH1/MNAT1) | IC50 (CDK4/cyclinD1) | IC50 (CDK2/cyclinE) | IC50 (CDK6/cyclinD3)
1 | CC(C)(C)c1cnc(CSc2cnc(NC(=O)CCCCCCC(=O)NO)s2)o1 [Compound 8, N^1-(5-((5-tert-butyloxazol-2-yl)methylthio)thiazol-2-yl)-N^8-hydroxyoctanediamide] | < 100 nM | < 100 nM | 100 to 1000 nM | 100 to 1000 nM | < 100 nM | 100 to 1000 nM
2 | CC(C)(C)c1cnc(CSc2cnc(NC(=O)C3CCN(c4ncc(C(=O)NO)cn4)CC3)s2)o1 [Compound 20, 2-(4-(5-((5-tert-butyloxazol-2-yl)methylthio)thiazol-2-ylcarbamoyl)piperidin-1-yl)-N-hydroxypyrimidine-5-carboxamide] | < 100 nM | < 100 nM | 1000 to 10000 nM | 100 to 1000 nM | < 100 nM | 1000 to 10000 nM
3 | CC(C)(C)c1cnc(CSc2cnc(NC(=O)Cc3ccc(OCCCC(=O)NO)cc3)s2)o1 [Compound 9, 4-(4-(2-(5-((5-tert-butyloxazol-2-yl)methylthio)thiazol-2-ylamino)-2-oxoethyl)phenoxy)-N-hydroxybutanamide] | < 100 nM | 100 to 1000 nM | 100 to 1000 nM | < 100 nM | < 100 nM | 100 to 1000 nM
